Measured values published in US9701650B2, “Derivatives of sobetirome” (OREGON HEALTH & SCIENCE UNIVERSITY, priority 2015, dated 2017).
Each block holds one compound with its values, some of them ahead of it.

What was measured:
[1] = single time point biodistribution study in mice (brain, liver, serum sobetirome 30 minutes after ip administration, LC-MS/MS); assay type: in vivo; conditions: for CNS distribution of sobetirome (in words): ip administration of prodrug, versus sobetirome; for brain sobetirome levels compared to equimolar systemic injection of sobetirome / liver sobetirome levels compared to direct sobetirome injection / serum sobetirome levels compared to direct sobetirome injection: sobetirome measured
Protocol: A biodistribution study in mice was performed on each prodrug to determine the brain, liver, and serum levels of sobetirome following a systemic (intraperitoneal) administration. The mice received an equimolar dose (1.5 μmol/kg) of prodrug and one cohort received the same dose of sobetirome as a control. Tissue and blood were collected 30 minutes post-injection and the concentration of sobetirome was determined using an LC-MS/MS. […] The brain/liver sobetirome ratio was increased compared to sobetirome injection by 5- and 10-fold for 11 and 15, respectively (FIG. 1C)
(§1) Animal Studies: Experimental protocols were in compliance with the National Institutes of Health Guide for the Care and Use of Laboratory Animals and approved by the Oregon Health & Science University Institutional Animal Care & Use Committee. Wild type male C57Bl/6 mice, aged 8-10 weeks, were housed in a climate controlled room with a 12 hour light-dark cycle with ad libitum access to food and water. Mice were injected once intraperitoneally (IP) with sobetirome and prodrugs at 3.05 μmol/kg. Euthanasia was performed on three mice per time points at the following times (0.15 h, 0.5 h, 1 h, 2 h, 4 h, and 8 h) and the tissues and blood were harvested. Tissues were immediately frozen and blood was kept on ice for a minimum of 30 minutes and then spun down at 7,500×G for 15 minutes. Serum (100 uL) was collected and was stored with tissues at −80° C. until samples were processed.
(§2) Serum Processing: The serum samples were warmed to room temperature and 10 μL of 2.99 μM internal standard (D6-Sobetirome) was added to them. Acetonitrile (500 μL) was added and the sample was vortexed for 20 seconds. The sample was then centrifuged at 10,000×G for 15 minutes at 4° C. Next, 90% of the upper supernatant was transferred to a glass test tube and concentrated using a speedvac for 1.5 hours at 45° C. The dried sample was then dissolved in 400 μL of 50:50 ACN:H2O and vortexed for 20 seconds. The resulting mixture was transferred to an Eppendorf and centrifuged at 10,000×G for 15 minutes. The supernatant was filtered with 0.22 μM centrifugal filters and submitted for LC-MS/MS analysis. The standard curve was made with 100 μL of serum from an 8-10 week old mouse not injected with Sobetirome or prodrug. The processing was performed exactly the same except after filtering the sample was split amongst 6 vials. To 5 out of the 6 vials was added Sobetirome to make final concentrations in matrix of (0.1 pg/μL, 1 pg/μL, 10 pg/μL, 100 pg/μL, and 1000 pg/μL).
(§3) Brain Processing: The brain samples were warmed to room temperature and transferred to a homogenizer tube with 5 GoldSpec ⅛ chrome steel balls (Applied Industrial Technologies). The resulting tube was weighed and then 1 mL of H2O was added, followed by 10 μL of 2.99 μM internal standard (D6-sobetirome). The tube was homogenized with a Bead Bug® for 30 seconds and then transferred to a Falcon tube containing 3 mL of ACN. ACN (1 mL) was used to wash homogenizer tube and the solution was transferred back to the Falcon tube. The sample was then processed using the same method for the serum processing except the sample was concentrated in a glass tube using a speedvac for 4 hours at 45° C.
(§4) Liver Processing: The liver samples were warmed to room temperature and transferred to a homogenizer tube with 5 GoldSpec ⅛ chrome steel balls (Applied Industrial Technologies). The resulting tube was weighed and then 1 mL of H2O was added, followed by 10 μL of 2.99 μM internal standard (D6-Sobetirome). The tube was then homogenized with a Bead Bug for 30 seconds. A small sample (100 μL) was then taken from the homogenized mixture and processed. This was done because the liver levels found in some samples were too high for the LC-MS/MS instrument. The samples were then processed using the serum processing method.

[2] = 8-hour time course distribution study in mice (sobetirome in brain, liver, serum after ip administration); assay type: in vivo; conditions: for AUC0-->t of sobetirome: ip 1.5 μmol/kg, 8 hour time course
Excerpt: (§5) The single time point pilot study was followed up for 11 and 15 vs. sobetirome with an 8-hour time course distribution study in mice. […] The sobetirome AUC, Cmax, and Tmax values in brain, liver and serum resulting from systemic administration of sobetirome, prodrug 11, and prodrug 15 are shown in Table 1 and the curves used to obtain these values are shown in FIGS. 2A, 2B and 2C.
as §1, with “Mice were injected once intraperitoneally (IP) with sobetirome and prodrugs at 3.05 μmol/kg.” left out
as §2, §3, §4

[3] = pharmacokinetic study of sobetirome in mice (t1/2); conditions: mouse, in vivo
Excerpt: as §5

[4] = ip 1.5 μmol/kg, 30 minutes post-injection
[5] = male, C57Bl/6, mouse, in vivo, ip

SMILES: Cc1cc(OCC(=O)OCC[N+](C)(C)C)cc(C)c1Cc1ccc(O)c(C(C)C)c1.[Br-] [Compound 8, 2-(trimethylamino)ethyl 2-(4-{[4-hydroxy-3-(propan-2-yl)phenyl]methyl}-3,5-dimethylphenoxy)acetate hydrobromide]
CNS distribution of sobetirome (in words) [1]: did not improve CNS distribution of sobetirome

brain/serum ratio of sobetirome (in words) [1, 4]: did not significantly increase | brain sobetirome levels compared to equimolar systemic injection of sobetirome [1, 4]: did not significantly increase
SMILES: Cc1cc(OCC(=O)OCCN2CCOCC2)cc(C)c1Cc1ccc(O)c(C(C)C)c1 [Compound 9, 2-(morpholin-4-yl)ethyl 2-(4-{[4-hydroxy-3-(propan-2-yl)phenyl]methyl}-3,5-dimethylphenoxy)acetate]

SMILES: Cc1cc(OCC(=O)OCCN)cc(C)c1Cc1ccc(O)c(C(C)C)c1.Cl [Compound 11, GC1-ethanolamine]
brain sobetirome levels compared to equimolar systemic injection of sobetirome [1, 4]: significant brain sobetirome level increases | liver sobetirome levels compared to direct sobetirome injection [1, 4]: significantly lower | serum sobetirome levels compared to direct sobetirome injection [1, 4]: significantly lower | CNS distribution of sobetirome (in words) [1]: improved CNS distribution | sobetirome exposure in brain compared to direct sobetirome injection ([2]; mice, full time course): increased sobetirome exposure | sobetirome exposure in liver compared to direct sobetirome injection ([2]; mice, full time course): decreased sobetirome exposure | sobetirome exposure in serum compared to direct sobetirome injection ([2]; mice, full time course): decreased sobetirome exposure

liver sobetirome levels compared to direct sobetirome injection [1, 4]: significantly lower | serum sobetirome levels compared to direct sobetirome injection [1, 4]: significantly lower | CNS distribution of sobetirome (in words) [1]: improved CNS distribution | Sobetirome Distribution AUCbrain/AUCliver [2, 5]: 0.20 | Sobetirome Distribution AUCbrain/AUCserum [2, 5]: 1.3 | brain/serum ratio of sobetirome based on AUC [2, 5]: 1.31 | sobetirome exposure in brain compared to direct sobetirome injection ([2]; mouse, in vivo): increased sobetirome exposure | sobetirome exposure in liver compared to direct sobetirome injection ([2]; mouse, in vivo): decreased sobetirome exposure | sobetirome exposure in serum compared to direct sobetirome injection ([2]; mouse, in vivo): decreased sobetirome exposure | CNS distribution properties compared to 11 ([2]; mouse, in vivo, ip): superior CNS distribution properties | increase in sobetirome AUC(brain)/AUC(liver) relative to sobetirome ([2]; mouse, in vivo, ip): five-fold increase | time to reach Cmax ([2]; mouse, in vivo, ip): 1 h
SMILES: Cc1cc(OCC(=O)OC2CNC2)cc(C)c1Cc1ccc(O)c(C(C)C)c1 [Compound 15, azetidin-3-yl 2-(4-{[4-hydroxy-3-(propan-2-yl)phenyl]methyl}-3,5-dimethylphenoxy)acetate]
brain sobetirome levels compared to equimolar systemic injection of sobetirome [1, 4]: significant brain sobetirome level increases

AUC0-->t of sobetirome ([2]; mouse brain): 10.8 ng·h/g | AUC0-->t of sobetirome ([2]; mouse liver): 293 ng·h/g | AUC0-->t of sobetirome ([2]; mouse serum): 68.2 ng·h/g | half-life [3]: 1.5 h
SMILES: Cc1cc(OCC(=O)O)cc(C)c1Cc1ccc(O)c(C(C)C)c1 [Sobetirome]
